# From patent US12403139B2, “Methods and compositions for prevention and treatment of cardiac hypertrophy” (University of Hawaii, priority 2010, dated 2025)
# How the values were obtained:
# WT mice exposed to TAC [1] = assay: Pressure overload cardiac hypertrophy by transverse aortic constriction (TAC): heart weight and echocardiography; type: in vivo
# Protocol: Transverse Aortic Constriction (TAC). Transverse aortic constriction was performed as described by Rockman, producing left ventricular hypertrophy by constriction of the aorta (Rockman et al., 1994; Rockman et al., 1991). The left side of the chest was depilated with Nair and a baseline 2-D echocardiogram was obtained. Mice were then deeply anesthetized with a mixture of ketamine and xylazine. The transverse aorta between the brachiocephalic and left carotid artery was banded using 6-0 silk ligature around the vessel and a 26 G blunt needle, after which the needle was withdrawn. Sham surgeries were identical apart from the constriction of the aorta.
# Transthoracic echocardiography. Baseline and post TAC transthoracic echocardiography were used to assess changes in mouse heart dimensions and function. Briefly, after two days of acclimatization and depilation, unanesthetized transthoracic echocardiography was performed using a 30-Mhz transducer (Vevo 770, VisualSonics). High quality two-dimensional images and M-mode images of the left ventricle were recorded. Measurements of left ventricular end-diastolic (LVIDd) and end-systolic (LVIDs) internal dimensions were performed by the leading edge to leading edge convention adopted by the American Society of Echocardiography. The left ventricular ejection fraction (% EF) was calculated as (LV Vol; d-LV Vol; s/LV Vol; d×100) (Visualsonics Inc.).
# Osmotic pump installation. Long term (up to 42 day) infusion of drugs can be accomplished by insertion of osmotic pumps without the need for repeated injection. Mice are placed under a low plane of anesthesia with an injection of Ketamine/Xylazine anesthetic (50 mg/10 mg·Kg) intraperitoneally (IP) 10 minutes prior to surgery. A small area between shoulder blades is shaved and sterilized with Povidine swab. A small incision is made in this area and blunt dissected below skin to allow placement of an Alzet osmotic pump (model 2006), previously loaded with the drug of choice under the skin between the shoulder blades where it is inaccessible to the mouse. Several stitches are applied to close the incision. The mouse is placed in regular housing on a warming mat until completely conscious, after which mice are then returned to regular housing room.
# The mice were subjected to pressure overload induced cardiac hypertrophy by TAC while administered 4 mg/kg of BCTC (in 20% wt/vol 2-Hydroxypropyl)-β-cyclodextrin/PBS) throughout the entire experiment using osmotic pumps (Alzet, Model 2006) pumping continuously at a rate of 0.15 ul/hr. The test was limited to ˜42 days (max) by the function of the pumps, as such the experiment was halted at 36 days post TAC, as pumps are installed previous to the TAC to allow recovery before the TAC surgery. […] This protection from dilation of the left ventricle translates to a protection in the function of the heart as measured by ejection fraction (% EF, p<0.05) and fractional shortening (% FS).
# WT mice exposed to TAC [2] = assay: Histological analysis of the heart 36 days post TAC (WGA-Alexa488 and picrosirius red staining); type: in vivo; conditions: BCTC treated TAC mice vs vehicle treated TAC mice
# Protocol: Tissue preparation for histology. […] For histology, hearts were perfused with phosphate-buffered saline and 10% formalin in situ, collected immediately, and fixed overnight in 10% formalin at 4° C. Tissues were then cut in a sagittal orientation, embedded in paraffin, mounted on glass slides, and stored until use. Paraffin-embedded sections were stained for the following:
# Collagen: Collagen volume fraction was determined by analysis of picrosirius stained sections. Sections cut to 5 μm thickness were deparaffinized, stained with Weigert's hematoxylin, then stained with picrosirius red (0.1% Sirius Red in picric acid). Sections were subsequently washed and dehydrated before image analysis.
# Cardiomyocyte cross sectional area: Heart sections were deparaffinized and permeabilized, then stained with wheat germ-agglutinin conjugated to Alexa488 (WGA-Alexa488, Invitrogen, W11261) at a concentration of 50 μg/mL to identify sarcolemmal membranes and measure cardiomyocyte cross sectional area (described below).
# Image collection and analysis. […] Fibrosis and cross-sectional cardiomyocyte area were quantified using ImageJ software (NIH). To quantify fibrosis, collagen fibers were highlighted, and the red-stained pixels were counted to determine the percentage of pixels in each field that represented collagen fibers. […]
smiles,measurement,setting,value
"CC(C)(C)c1ccc(NC(=O)N2CCN(c3ncccc3Cl)CC2)cc1 [BCTC, N-(4-tertiarybutylphenyl)-4-(3-chloropyridin-2-yl)tetrahydropyrazine-1(2H)-carboxamide]",fractional shortening (% FS),"WT mice exposed to TAC [1]; TAC mice, 4 mg/kg BCTC by osmotic pump, 36 days post TAC, vs vehicle, p<0.01 (FIG. 8E)",significantly diminished at 36 days post TAC compared to drug-treated mice
same,ejection fraction (% EF),"WT mice exposed to TAC [1]; TAC mice, 4 mg/kg BCTC by osmotic pump, 36 days post TAC, vs vehicle, p<0.05 (FIG. 8D)",significantly diminished at 36 days post TAC compared to drug-treated mice
same,heart weight/body weight ratio,"WT mice exposed to TAC [1]; TAC mice, 4 mg/kg BCTC by osmotic pump, 36 days post TAC, vs vehicle, p=0.035 (FIG. 8A)",significantly greater in vehicle treated WT mice than drug treated mice
same,"left ventricular internal diameter end-diastolic (LVIDd), TAC mice","WT mice exposed to TAC [1]; TAC mice, 4 mg/kg BCTC by osmotic pump, zero to 36 days, vs vehicle, significantly different after 18 days, p<0.001 (FIG. 8C)",significantly smaller LVIDd than the vehicle treated TAC mice
same,LVIDd over time in TAC mice,"WT mice exposed to TAC [1]; TAC mice, 4 mg/kg BCTC by osmotic pump, vehicle mice start increasing diameter at 9 days",the diameter is maintained for the duration of the test
same,"left ventricular internal diameter (LVID,d), sham mice","WT mice exposed to TAC [1]; sham mice, BCTC vs vehicle, echocardiography every 9 days (FIG. 8B)",no difference
same,cardiomyocyte cross sectional area,"WT mice exposed to TAC [2]; p=<0.01, n=100 (FIG. 9A)",significantly smaller myocytes in BCTC treated TAC mice than vehicle treated TAC control mice
same,interstitial collagen (area of collagen staining as a percentage of tissue area),"WT mice exposed to TAC [2]; picrosirius red, p=0.05 (FIG. 9B)",significantly less interstitial collagen in BCTC treated TAC mice than vehicle treated TAC control mice
